4 compounds from patent publication US20180360786A1, “(R)-CARBIDOPA ALONE OR IN COMBINATION WITH A STEROID FOR TREATING PAIN, INFLAMMATION, AN INFLAMMATORY DISEASE, AN IMMUNE OR AUTOIMMUNE DISEASE AND TUMOUR GROWTH” (PROXIMAGEN GROUP LIMITED, priority 2015, published 2018) can be followed below.

Experiment [1] has as its target T1, human aromatic L-amino acid decarboxylase (DOPA decarboxylase) (Homo sapiens, UniProt P20711).
T1 construct: purchased R&D systems 3564-DC
T1 sequence (P20711 1-480): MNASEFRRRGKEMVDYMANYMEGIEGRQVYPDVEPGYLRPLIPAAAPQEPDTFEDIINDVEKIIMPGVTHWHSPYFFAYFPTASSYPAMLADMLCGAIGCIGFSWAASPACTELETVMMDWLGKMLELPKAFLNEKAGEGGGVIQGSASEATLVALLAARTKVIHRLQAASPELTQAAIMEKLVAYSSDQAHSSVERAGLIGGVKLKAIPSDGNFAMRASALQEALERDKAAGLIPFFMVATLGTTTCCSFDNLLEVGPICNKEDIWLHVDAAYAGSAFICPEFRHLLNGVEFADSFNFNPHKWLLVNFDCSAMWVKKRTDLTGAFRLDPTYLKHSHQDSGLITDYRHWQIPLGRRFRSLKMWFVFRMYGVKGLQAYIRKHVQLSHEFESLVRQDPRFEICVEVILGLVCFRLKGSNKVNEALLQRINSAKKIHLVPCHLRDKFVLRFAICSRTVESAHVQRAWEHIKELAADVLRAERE
In words: In vitro determination of human aromatic L-amino acid decarboxylase (DOPA decarboxylase) inhibition. The class given is biochemical. The following applies: recombinant human DOPA decarboxylase, 500 μM L-Dopa, 60 min pre-incubation. As to the method:
The enzyme reaction of human DOPA decarboxylase was carried out according to the manufacture instructions (R&D systems cat#3564-DC). The assay measured the ability of recombinant human DOPA decarboxylase to convert L-Dopa to dopamine. The dopamine product was measured by its absorbance at 340 nm after derivatization with trinitrobenzene sulphuric acid. Briefly, the reaction was carried out in 50 mM HEPES buffer containing 100 mM NaCl pH 7.2 for 30 min and stopped by inactivation of the enzyme at 95° C. for 2 min. The inhibitory assay was performed by measuring the decarboxylase activity of DOPA decarboxylase with 0.8 μg enzyme, 500 μM L-Dopa, and 100 μM pyridoxal phosphate in the presence or absence of a fixed amount of each compound. Test compounds were pre-incubated for 60 min with DOPA decarboxylase before initiating the assay with the addition of the substrate L-DOPA. Dose response curves were generated to determine the concentration required to inhibit 50% of decarboxylase activity (IC50). Compounds were evaluated in duplicate at 7 concentrations. IC50 values were derived by nonlinear regression analysis.

The next experiment deals with CFA induced paw oedema. In words: CFA induced paw oedema in rat, paw volume (plethysmometer). The class given is in vivo. The following applies: dosed 24 hours post CFA, 3 hours post treatment. Here is the method: (§1) Assessment of the anti-hyperalgesic properties of (R)-Carbidopa was determined through measurement of weight bearing following CFA induced hypersensitivity. Naive rats distribute their body weight equally between the two hind paws. However, when the injected (left) hind paw is painful, the weight is re-distributed so that less weight is put on the affected paw (decrease in weight bearing on injured paw). Weight bearing through each hind limb was measured using a rat incapacitance tester (Linton Instruments, UK). Rats were placed in the incapacitance tester with the hind paws on separate sensors and the average force exerted by both hind limbs was recorded over 4 seconds. The injection of CFA also induces an oedema that can be assessed by paw volume; this is measured using a plethysmometer. […] Data were analysed by comparing treatment groups to the vehicle control group at each time point. Weight bearing (g) readings were taken for both right and left hind paws and the difference calculated. Data is expressed as % reversal of the hypersensitivity to pain. Paw Volume (mL) readings were taken for the left hind paws. Data are expressed as % reversal of the oedema. Calculation: (post dose reading−pre dose reading)/(naïve reading−pre dose reading)×100, where naive weight bearing difference−pre dose weight bearing difference is defined as the CFA window to be reversed. […]

A further experiment deals with T2, human VAP-1 (SSAO) (Homo sapiens, UniProt Q16853).
T2 construct: made in house
T2 sequence (Q16853 29-763 limits assumed): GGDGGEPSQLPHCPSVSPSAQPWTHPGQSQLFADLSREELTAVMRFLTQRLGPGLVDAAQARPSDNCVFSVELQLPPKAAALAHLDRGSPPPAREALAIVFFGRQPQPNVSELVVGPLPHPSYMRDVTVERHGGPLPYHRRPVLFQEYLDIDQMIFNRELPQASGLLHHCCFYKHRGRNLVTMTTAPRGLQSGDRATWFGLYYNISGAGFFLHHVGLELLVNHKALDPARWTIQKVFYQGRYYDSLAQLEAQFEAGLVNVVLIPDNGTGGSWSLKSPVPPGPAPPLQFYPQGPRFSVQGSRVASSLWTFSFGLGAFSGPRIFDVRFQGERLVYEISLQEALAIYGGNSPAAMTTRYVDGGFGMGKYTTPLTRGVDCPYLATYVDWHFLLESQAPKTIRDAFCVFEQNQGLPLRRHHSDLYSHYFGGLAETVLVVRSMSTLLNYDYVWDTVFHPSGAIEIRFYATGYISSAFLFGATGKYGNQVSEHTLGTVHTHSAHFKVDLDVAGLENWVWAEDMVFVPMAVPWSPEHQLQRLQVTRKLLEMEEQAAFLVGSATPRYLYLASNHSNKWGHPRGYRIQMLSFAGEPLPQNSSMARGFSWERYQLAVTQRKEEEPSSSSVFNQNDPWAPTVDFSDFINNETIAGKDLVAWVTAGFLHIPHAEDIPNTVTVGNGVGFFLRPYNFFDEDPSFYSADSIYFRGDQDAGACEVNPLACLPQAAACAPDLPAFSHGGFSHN
In words: In vitro determination of human VAP-1 (SSAO) inhibition (HRP-coupled Amplex Red, benzylamine substrate). The class given is biochemical. Particulars: for pIC50: purified recombinant human VAP-1 (SSAO), benzylamine 100 μM, room temperature, about 15 min pre-incubation. As to the method: This assay is performed at room temperature with purified recombinantly expressed human VAP-1 (SSAO). Enzyme was prepared essentially as described in Ohman et al. (Protein Expression and Purification 46 (2006) 321-331). The enzyme activity is assayed with benzylamine as substrate by utilizing the production of hydrogen peroxide in a horseradish peroxidise (HRP) coupled reaction. Briefly, test compounds are dissolved in dimethyl sulfoxide (DMSO) to a concentration of 10 mM. Dose-response measurements are assayed by either creating 1:10 serial dilutions in DMSO to produce a 7 point curve or by making 1:3 serial dilutions in DMSO to produce 11 point curves. The top concentrations are adjusted depending on the potency of the compounds and subsequent dilution in reaction buffer yielded a final DMSO concentration ≤2%.
In a horseradish peroxidise (HRP) coupled reaction, hydrogen peroxide oxidation of 10-acetyl-3,7-dihydroxyphenoxazine produces resorufin, which is a highly fluorescent compound (Zhout and Panchuk-Voloshina. Analytical Biochemistry 253 (1997) 169-174; AmplexR Red Hydrogen Peroxide/peroxidise Assay kit, Invitrogen A22188). Enzyme and compounds in 50 mM sodium phosphate, pH 7.4 are set to pre-incubate in flat-bottomed microtiter plates for approximately 15 minutes before initiating the reaction by addition of a mixture of HRP, benzylamine and Amplex reagent. Benzylamine concentration is fixed at a concentration corresponding to the Michaelis constant, determined using standard procedures. Fluorescence intensity is then measured at several time points during 1-2 hours, exciting at 544 nm and reading the emission at 590 nm. […] The inhibition is measured as % decrease of the signal compared to a control without inhibitor (only diluted DMSO). […] Data is fitted to a four parameter logistic model and IC50 values are calculated, for example by using the GraphPad Prism 4 or XLfit 4 programs.

For experiment [2], the system named is CFA induced hypersensitivity. In words: CFA induced hypersensitivity in rat, weight bearing (incapacitance tester). Particulars: dosed 24 hours post CFA, 1 and 3 hours post treatment. It counts as in vivo. Here is the method: as §1, with “plethysmometer. The rat's hind paw is placed into the cylinder containing a solution and the volume of displaced liquid determines the paw volume. Naive male, Sprague Dawley rats were acclimatised with food and water available ad libitum. Habituation to the incapacitance tester was performed. Baseline weight bearing and paw volume recordings were taken prior to induction of insult. Inflammatory hypersensitivity was induced by intraplantar injection of CFA (100 μl of 1 mg/ml solution) into the left hind paw. A pre-treatment weight bearing and paw volume measurement was taken to assess hypersensitivity 23 hours post-CFA. Animals were then ranked and randomised according to CFA window in a Latin square design.” for “plethysmometer.”

In general, pIC50 refers to the IC50 on a negative log10 scale, so that one unit is a factor of ten.

pIC50: −log10 of the molar value. Read-outs that look alike come from different tables or passages of the source. Some results are limits rather than exact numbers.

As for `C[C@](Cc1ccc(O)c(O)c1)(NN)C(=O)O` [(R)-Carbidopa, (R)-carbidopa], the negative-log IC50 (pIC50) is less than 5.52 in experiment [1] (did not inhibit up to the maximum concentration tested, read-out: inhibition of human aromatic L-amino acid decarboxylase (IC50)) and 6.83 on human VAP-1 (SSAO). In addition, the “reduction of paw volume (oedema), Part A, FIG. 2” value in the experiment with CFA induced paw oedema (3-30 mg/kg alone) is “significant reduction of paw volume”. The “selectivity for SSAO/VAP-1 over the enzyme DOPA decarboxylase” value on human VAP-1 (SSAO) (comparison of VAP-1 and DOPA decarboxylase inhibition) is “surprising selectivity”. Also, the “inhibition of the hypersensitivity response (weight bearing), Part A, FIG. 1” value in experiment [2] (3-30 mg/kg alone) is on record as “dose-dependently inhibited the hypersensitivity response”.

For `COc1ccc2c(c1)c(CC(=O)O)c(C)n2C(=O)c1ccc(Cl)cc1` [Indomethacin, indomethacin], the “reduction of paw oedema” value with CFA induced paw oedema (indomethacin 10 mg/kg) is reported as “significant reduction on paw oedema”. Also, the “reversal of the hypersensitivity measured using weight bearing” value in experiment [2] (indomethacin 10 mg/kg) is “marked reversal of the hypersensitivity”.

With `C[C@](Cc1ccc(O)c(O)c1)(NN)C(=O)O` (single isomer, unassigned) [(S)-Carbidopa], the pIC50 was 6.72 in experiment [1] (read-out: IC50 for inhibition of human aromatic L-amino acid decarboxylase) and 6.85 on human VAP-1 (SSAO).

Turning to `C[C@]12C=CC(=O)C=C1CC[C@@H]1[C@@H]2[C@@H](O)C[C@@]2(C)[C@H]1CC[C@]2(O)C(=O)CO` [Prednisolone, prednisolone], the “inhibition of the hypersensitivity response (weight bearing), Part B, FIG. 3” value in experiment [2] (0.3-10 mg/kg alone) is “dose-dependently inhibited the hypersensitivity response”.
